Assay results as given in ChEMBL document CHEMBL1201862, “PubChem BioAssay data set” (2004).
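Step 1: Grow cells in 96-well plates. Step 2: Expose to compound for 48 hours at 5 concentrations. Step 3: Interpolate endpoints linearly; if unreached, use highest concentration. GI50 marks 50% less growth.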 The source made the active and inactive calls. Cut-off read from the data, not from the text of the source: active = GI50 up to about 1.1 µM and inactive = higher.

Columns and labels:
Test in all cases: NCI-60 cell line screen, 48 h
OVCAR-3 = test system: OVCAR-3
HCT-116 = test system: HCT-116
SN12C = test system: SN12C
UACC-257 = test system: UACC-257
HCC 2998 = test system: HCC 2998
MOLT-4 = test system: MOLT-4
A498 = test system: A498
CCRF-CEM = test system: CCRF-CEM
SK-MEL-2 = test system: SK-MEL-2
MCF7 = test system: MCF7
K562 = test system: K562
DU-145 = test system: DU-145
IGROV-1 = test system: IGROV-1
SF-295 = test system: SF-295
CAKI-1 = test system: CAKI-1
HCT-15 = test system: HCT-15
HT-29 = test system: HT-29
TK-10 = test system: TK-10
SNB-75 = test system: SNB-75
NCI-H522 = test system: NCI-H522

SMILES	GI50 (OVCAR-3)	GI50 (HCT-116)	GI50 (SN12C)	GI50 (UACC-257)	GI50 (HCC 2998)	GI50 (MOLT-4)	GI50 (A498)	GI50 (CCRF-CEM)	GI50 (SK-MEL-2)	GI50 (MCF7)	GI50 (K562)	GI50 (DU-145)	GI50 (IGROV-1)	GI50 (SF-295)	GI50 (CAKI-1)	GI50 (HCT-15) [µM]	GI50 (HT-29)	GI50 (TK-10)	GI50 (SNB-75)	GI50 (NCI-H522)
CC(=O)O[C@H]1C(=O)N(c2cc3c4ccccc4ccc3c3ccccc23)[C@@H]1c1ccccc1	1.71 µM (inactive)	3.21 µM (inactive)	11 µM (inactive)	4.09 µM (inactive)	5.04 µM (inactive)	7.69 µM (inactive)	21.8 µM (inactive)	3.76 µM (inactive)	2.65 µM (inactive)	3.13 µM (inactive)	4.8 µM (inactive)	14.5 µM (inactive)	2.11 µM (inactive)	3.64 µM (inactive)	4.62 µM (inactive)	3.85	2.64 µM (inactive)	12.8 µM (inactive)	2 µM (inactive)	–
CC(C)(C)OCC1NC(=O)[C@@H]2Cc3c([nH]c4ccccc34)C(C3CCCCC3)N2C1=O (some centres not stated)	11.6 µM (inactive)	15.3 µM (inactive)	19.6 µM (inactive)	18.4 µM (inactive)	–	16.5 µM (inactive)	32.2 µM (inactive)	–	20.7 µM (inactive)	31.6 µM (inactive)	27.3 µM (inactive)	34.8 µM (inactive)	23.2 µM (inactive)	18.2 µM (inactive)	17.7 µM (inactive)	24	18 µM (inactive)	24.3 µM (inactive)	–	16.5 µM (inactive)
Cc1nc2ccc(F)cc2c(Cl)c1CCCl	42.3 µM (inactive)	26 µM (inactive)	–	39 µM (inactive)	33.4 µM (inactive)	21.3 µM (inactive)	63.1 µM (inactive)	18.6 µM (inactive)	–	43.5 µM (inactive)	25.8 µM (inactive)	44.8 µM (inactive)	59.8 µM (inactive)	51.1 µM (inactive)	–	34.3	25 µM (inactive)	62.8 µM (inactive)	72.6 µM (inactive)	31.5 µM (inactive)
CC(C)(CN1CCCCC1)C(=O)CC(SCCS(=O)(=O)O)c1ccc(Cl)c(Cl)c1 (configuration not stated)	2.37 µM (inactive)	2.59 µM (inactive)	3.46 µM (inactive)	5.94 µM (inactive)	13 µM (inactive)	3.61 µM (inactive)	3.56 µM (inactive)	2.07 µM (inactive)	24 µM (inactive)	3.46 µM (inactive)	2.42 µM (inactive)	11.4 µM (inactive)	4.4 µM (inactive)	3.25 µM (inactive)	2.97 µM (inactive)	2.07	3.08 µM (inactive)	5.46 µM (inactive)	–	3.19 µM (inactive)
O=C(n1c(=O)n(-c2ccc(Cl)cc2)c(=O)n1C(=O)C(Cl)(Cl)Cl)C(Cl)(Cl)Cl	> 100 µM (inactive)	> 100 µM (inactive)	> 100 µM (inactive)	> 100 µM (inactive)	> 100 µM (inactive)	> 100 µM (inactive)	> 100 µM (inactive)	> 100 µM (inactive)	> 100 µM (inactive)	> 100 µM (inactive)	21.4 µM (inactive)	> 100 µM (inactive)	> 100 µM (inactive)	> 100 µM (inactive)	> 100 µM (inactive)	> 10	> 100 µM (inactive)	> 100 µM (inactive)	–	> 100 µM (inactive)
COC(=O)[C@@H]1[C@@H](c2cccc(Cl)c2)[C@H](C(=O)OC)C2(C[C@@]1(C)O)NCCS2 (some centres not stated)	31.3 µM (inactive)	42.5 µM (inactive)	47.9 µM (inactive)	87.7 µM (inactive)	–	0.57 µM (active)	> 100 µM (inactive)	0.684 µM (active)	16.6 µM (inactive)	56.1 µM (inactive)	25.6 µM (inactive)	32.7 µM (inactive)	62.5 µM (inactive)	> 100 µM (inactive)	> 100 µM (inactive)	82.6	44.2 µM (inactive)	> 100 µM (inactive)	35.5 µM (inactive)	24.2 µM (inactive)
O=C1N/N=C\Nc2ccc(cc2)S(=O)(=O)c2ccc(cc2)/N=C\NNC1=O	> 100 µM (inactive)	> 100 µM (inactive)	> 100 µM (inactive)	> 100 µM (inactive)	> 100 µM (inactive)	> 100 µM (inactive)	20 µM (inactive)	–	> 100 µM (inactive)	> 100 µM (inactive)	> 100 µM (inactive)	> 100 µM (inactive)	> 100 µM (inactive)	> 100 µM (inactive)	> 100 µM (inactive)	> 100	> 100 µM (inactive)	> 100 µM (inactive)	–	> 100 µM (inactive)
NC(CC(O)(c1ccccc1)c1ccccc1)c1ccccc1S (configuration not stated)	16 µM (inactive)	13.2 µM (inactive)	18.8 µM (inactive)	18.9 µM (inactive)	17.3 µM (inactive)	21.4 µM (inactive)	17.6 µM (inactive)	13 µM (inactive)	15.9 µM (inactive)	15.2 µM (inactive)	16.4 µM (inactive)	> 10 µM (inactive)	> 10 µM (inactive)	14.9 µM (inactive)	–	15.2	14.5 µM (inactive)	15.7 µM (inactive)	15 µM (inactive)	16.6 µM (inactive)
NC1CC(=O)c2c1sc(Cl)c2Cl (configuration not stated)	> 100 µM (inactive)	> 100 µM (inactive)	> 100 µM (inactive)	> 100 µM (inactive)	> 100 µM (inactive)	> 100 µM (inactive)	> 100 µM (inactive)	> 100 µM (inactive)	> 100 µM (inactive)	> 100 µM (inactive)	> 100 µM (inactive)	> 100 µM (inactive)	> 100 µM (inactive)	–	> 100 µM (inactive)	> 100	> 100 µM (inactive)	> 100 µM (inactive)	> 100 µM (inactive)	–
COc1ccc(C2NC(=S)Nc3c2c(=O)oc2c3ccc3ccccc32)cc1 (configuration not stated)	> 100 µM (inactive)	78.2 µM (inactive)	88.5 µM (inactive)	> 100 µM (inactive)	–	73.5 µM (inactive)	38.9 µM (inactive)	46 µM (inactive)	44.1 µM (inactive)	> 100 µM (inactive)	56.9 µM (inactive)	> 100 µM (inactive)	> 100 µM (inactive)	59.3 µM (inactive)	58.3 µM (inactive)	53.7	> 100 µM (inactive)	99.3 µM (inactive)	33.7 µM (inactive)	> 100 µM (inactive)
O=C1NC(=O)C(C(CC(=O)c2ccc([N+](=O)[O-])cc2)c2ccccc2)C(=O)N1 (configuration not stated)	36.7 µM (inactive)	14.8 µM (inactive)	> 100 µM (inactive)	> 100 µM (inactive)	–	73.3 µM (inactive)	> 100 µM (inactive)	35.2 µM (inactive)	> 100 µM (inactive)	13.5 µM (inactive)	60.3 µM (inactive)	> 100 µM (inactive)	> 100 µM (inactive)	4.79 µM (inactive)	–	> 100	52.2 µM (inactive)	0.0471 µM (active)	> 100 µM (inactive)	47.2 µM (inactive)
